In patent publication US20120282377A1, “Methods and Formulations for Inhibiting Degradation of Photosensitive Sweeteners and Sweetener Enhancers” (priority 2011, published 2012):
“And” between values parts separate entries of the source, which are not always exact repeats. Identical values can stand only once.

How the values were obtained:
Assay type in all cases: physicochemical
[1] = Monatin stability in PET bottle types with or without additives, 1600 Langley UV exposure (Example 5); conditions: 1600 Langley (24 hour at 40° C.); for Monatin remaining after UV exposure (ppm): control 43.3 ppm
Procedure: The stability of monatin in regular PET bottles, PET bottles with UV barrier (colorless or green) and with or without Chinese Green Tea polyphenol or α-cyclodextrin was evaluated. Each sample was irradiated with an irradiation energy of 1600 Langley exposure (24 hour exposure at 40° C. in Atlas SunTest XLS+chamber, which was equivalent to four day of sun exposure in Arizona). A control formulation was used that contained monatin at 43.3 ppm. The results were analyzed by LC-MS.

[2] = Monatin stability in lemon-lime beverage with EMIQ, visible light (Example 4); conditions: for % Monatin remaining / Conc. of Monatin: with EMIQ
Procedure: The polyphenol enzymatically-modified isoquercitrin (EMIQ) was used to stabilize monatin (31 mg/L) in a lemon lime carbonated beverage formulation contained in either a regular (clear, colorless) PET bottle or a dark-colored PET bottle. The level of EMIQ in the samples was 7.5 PPM. A control formulation was used that contained no EMIQ. The samples were exposed to UV light or ambient indoor laboratory fluorescent lighting for up to 72 hours. UV light was administered in a UV chamber at 40° C. with approximately 400 Langley per 6 hours of exposure. The results listed below indicate that the monatin was very unstable in the control formulations with only 1.4% monatin remaining after 24 hours exposure to UV light. EMIQ provided protection from degradation of the monatin. When packaged in a dark-colored PET bottle approximately 89% monatin remained in the formulation after exposure to UV light for 24 hours. When exposed to ambient indoor laboratory lighting for 72 hours over 90% monatin remained in both clear and dark PET bottles containing the EMIQ polyphenol. All analyses were done by HPLC/MS.

[3] = Visual analysis of UV and light exposed monatin samples by 6 panelists; set-up: key: (+) = colorless; (−) = color change (color noted); conditions: 30 PPM in lemon lime matrix pH 3.35, panelists 1-6
Procedure: A survey of odor and visual analysis of the UV and light exposed samples of the monatin samples was conducted by 6 panelists. Samples for analysis were solution of monatin in a lemon lime matrix without flavor at pH 3.35 (30 PPM monatin) exposed to visible for three days or UV light for 24 hours (equivalent of four days sun exposure).

[4] = Green PET with UV barrier (0.12%), additives none
[5] = PET with UV barrier, Chinese Green Tea Polyphenol TP>40 (149 ppm)
[6] = PET with UV barrier, additives none
[7] = PET with UV barrier, α-cyclodextrin (729 ppm)
[8] = dark-colored PET, Vis. exp. 0 hours
[9] = dark-colored PET, Vis. exp. 5 hours
[10] = dark-colored PET, Vis. exp. 7 hours
[11] = dark-colored PET, Vis. exp. 23 hours
[12] = dark-colored PET, Vis. exp. 28 hours
[13] = dark-colored PET, Vis. exp. 48 hours
[14] = regular PET, Vis. exp. 23 hours
[15] = regular PET, Vis. exp. 28 hours
[16] = regular PET, Vis. exp. 48 hours

- Monatin remaining after UV exposure (%) [1, 4]: 65.6%
- Monatin remaining after UV exposure (ppm) [1, 4]: 28.4 ppm
- Monatin remaining after UV exposure (%) [1, 5]: 77.6%
- Monatin remaining after UV exposure (ppm) [1, 5]: 33.6 ppm
- Monatin remaining after UV exposure (%) [1, 6]: 51.0%
- Monatin remaining after UV exposure (ppm) [1, 6]: 22.1 ppm
- Monatin remaining after UV exposure (%) [1, 7]: 33.3%
- Monatin remaining after UV exposure (ppm) [1, 7]: 14.4 ppm
- Monatin remaining after UV exposure (%) ([1]; Regular PET, additives none): 13.4%
- Monatin remaining after UV exposure (ppm) ([1]; Regular PET, additives none): 5.8 ppm
- monatin remained ([2]; ambient indoor laboratory lighting for 72 hours, both clear and dark PET bottles containing the EMIQ polyphenol): over 90%
- % Monatin remaining [2, 8]: 100%
- Conc. of Monatin [2, 8]: 30930 ng/mL
- % Monatin remaining [2, 9]: 97.5%
- Conc. of Monatin [2, 9]: 30160 ng/mL
- % Monatin remaining [2, 10]: 96.4% and 96.2%
- Conc. of Monatin [2, 10]: 29810 ng/mL and 29760 ng/mL
- % Monatin remaining [2, 11]: 93.3% and 93.1%
- Conc. of Monatin [2, 11]: 28870 ng/mL and 28790 ng/mL
- % Monatin remaining [2, 12]: 94.5%
- Conc. of Monatin [2, 12]: 29220 ng/mL
- % Monatin remaining [2, 13]: 92.1% and 92.4%
- Conc. of Monatin [2, 13]: 28490 ng/mL and 28590 ng/mL
- % Monatin remaining ([2]; regular PET, Vis. exp. 0 hours): 100%
- Conc. of Monatin ([2]; regular PET, Vis. exp. 0 hours): 30930 ng/mL
- % Monatin remaining ([2]; regular PET, Vis. exp. 5 hours): 99.0% and 98.6%
- Conc. of Monatin ([2]; regular PET, Vis. exp. 5 hours): 30620 ng/mL and 30510 ng/mL
- % Monatin remaining ([2]; regular PET, Vis. exp. 7 hours): 97.2% and 97.4%
- Conc. of Monatin ([2]; regular PET, Vis. exp. 7 hours): 30060 ng/mL and 30120 ng/mL
- % Monatin remaining [2, 14]: 94.1%
- Conc. of Monatin [2, 14]: 29100 ng/mL
- % Monatin remaining [2, 15]: 94.7% and 94.8%
- Conc. of Monatin [2, 15]: 29270 ng/mL and 29320 ng/mL
- % Monatin remaining [2, 16]: 92.7% and 92.5%
- Conc. of Monatin [2, 16]: 28680 ng/mL and 28610 ng/mL
- Visual analysis ([3]; PET with UV barrier, UV light 24 hours): −
- Visual analysis ([3]; PET with UV barrier, visible light three days): +
- Visual analysis ([3]; Regular PET, UV light 24 hours): −
- Visual analysis ([3]; Regular PET, visible light three days): +
Compound: NC(CC(O)(Cc1c[nH]c2ccccc12)C(=O)O)C(=O)O (stereo not drawn) [Monatin, 2-amino-4-carboxy-4-hydroxy-5-(3-indolyl)-pentanoic acid]
